Test results published in ChEMBL document CHEMBL1909046, “DrugMatrix in vitro pharmacology data”.

Key:
[1] = target: Cytochrome P450 2C19 (Homo sapiens, UniProt P33261); details: bti-tn-5b1-4; note: in other assays of this panel Not Active means under 50% inhibition at 10 µM
[2] = target: Sodium-dependent noradrenaline transporter (Homo sapiens, UniProt P23975); assay: DRUGMATRIX: Norepinephrine Transporter radioligand binding (ligand: [125I] RTI-55); assay type: cell membranes, MDCK, Membrane; details: Not Active = under 50% inhibition at 10 µM
[3] = target: Voltage-gated inwardly rectifying potassium channel KCNH2 (Homo sapiens, UniProt Q12809); details: hek293; note: in other assays of this panel Not Active means under 50% inhibition at 10 µM
[4] = target: T1, C-X-C chemokine receptor type 2 (Homo sapiens, UniProt P25025); assay type: cell membranes, Membrane; details: cho-k1; note: in other assays of this panel Not Active means under 50% inhibition at 10 µM
T1 sequence (P25025 whole entry): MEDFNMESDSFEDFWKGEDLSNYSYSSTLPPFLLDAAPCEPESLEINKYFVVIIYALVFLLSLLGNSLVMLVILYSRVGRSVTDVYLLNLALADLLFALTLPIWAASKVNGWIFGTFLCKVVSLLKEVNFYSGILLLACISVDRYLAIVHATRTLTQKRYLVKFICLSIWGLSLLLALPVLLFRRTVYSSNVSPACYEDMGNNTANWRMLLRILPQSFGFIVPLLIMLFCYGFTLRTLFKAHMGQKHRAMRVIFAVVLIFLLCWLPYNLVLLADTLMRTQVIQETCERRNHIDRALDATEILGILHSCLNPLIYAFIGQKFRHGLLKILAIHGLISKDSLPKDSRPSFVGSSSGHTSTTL

[5] = target: Mitogen-activated protein kinase 14 (Homo sapiens, UniProt Q16539); design: species or system Escherichia coli;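 note: inhibition of p38alpha enzyme activity in a biochemical kinase assay, with myelin basic protein serving as substrate; in other assays of this panel Not Active means under 50% inhibition at 10 µM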
[6] = DRUGMATRIX: GABAA, Chloride Channel, TBOB radioligand binding (ligand: [3H] TBOB); assay type: cell membranes, Rattus norvegicus, Wistar, Cerebral cortex, Membrane; details: Not Active = under 50% inhibition at 10 µM
[7] = target: D(3) dopamine receptor (Homo sapiens, UniProt P35462); assay: DRUGMATRIX: Dopamine D3 radioligand binding (ligand: [3H] Spiperone); assay type: cell membranes, CHO, Membrane; details: cho
[8] = target: Mitogen-activated protein kinase 1 (Homo sapiens, UniProt P28482); assay: DRUGMATRIX: Protein Serine/Threonine Kinase, ERK2 enzyme inhibition (substrate: Myelin Basic Protein); design: species or system Escherichia coli; details: Not Active = under 50% inhibition at 10 µM
[9] = target: Cytochrome P450 2E1 (Homo sapiens, UniProt P05181); details: bti-tn-5b1-4; note: in other assays of this panel Not Active means under 50% inhibition at 10 µM
[10] = target: T2, Cytochrome P450 1A2 (Homo sapiens, UniProt P05177); details: bti-tn-5b1-4; note: in other assays of this panel Not Active means under 50% inhibition at 10 µM
T2 sequence (P05177 whole entry): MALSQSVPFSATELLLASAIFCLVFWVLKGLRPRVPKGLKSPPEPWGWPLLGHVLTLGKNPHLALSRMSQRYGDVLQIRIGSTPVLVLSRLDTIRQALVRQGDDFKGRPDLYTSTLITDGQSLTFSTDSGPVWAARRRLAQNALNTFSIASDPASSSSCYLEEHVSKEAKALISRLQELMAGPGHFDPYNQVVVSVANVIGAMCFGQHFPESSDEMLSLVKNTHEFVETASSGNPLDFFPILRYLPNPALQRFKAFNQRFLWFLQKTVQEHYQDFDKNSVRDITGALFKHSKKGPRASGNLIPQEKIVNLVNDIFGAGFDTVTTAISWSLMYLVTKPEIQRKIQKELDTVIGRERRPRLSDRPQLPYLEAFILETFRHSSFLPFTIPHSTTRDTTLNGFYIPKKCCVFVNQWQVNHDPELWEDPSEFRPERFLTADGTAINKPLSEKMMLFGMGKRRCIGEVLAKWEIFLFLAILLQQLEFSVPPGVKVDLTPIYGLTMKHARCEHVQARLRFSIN

[11] = target: Sigma non-opioid intracellular receptor 1 (Homo sapiens, UniProt Q99720); assay: DRUGMATRIX: Sigma1 radioligand binding (ligand: [3H] Haloperidol); assay type: cell membranes, Jurkat, Membrane; details: jurkat; Not Active = under 50% inhibition at 10 µM
[12] = target: Estrogen receptor beta (Homo sapiens, UniProt Q92731); details: sf9; note: in other assays of this panel Not Active means under 50% inhibition at 10 µM
[13] = target: T3, Calcitonin receptor (Homo sapiens, UniProt P30988); assay type: cell membranes, Membrane; details: t47d; note: in other assays of this panel Not Active means under 50% inhibition at 10 µM
T3 sequence (P30988 whole entry): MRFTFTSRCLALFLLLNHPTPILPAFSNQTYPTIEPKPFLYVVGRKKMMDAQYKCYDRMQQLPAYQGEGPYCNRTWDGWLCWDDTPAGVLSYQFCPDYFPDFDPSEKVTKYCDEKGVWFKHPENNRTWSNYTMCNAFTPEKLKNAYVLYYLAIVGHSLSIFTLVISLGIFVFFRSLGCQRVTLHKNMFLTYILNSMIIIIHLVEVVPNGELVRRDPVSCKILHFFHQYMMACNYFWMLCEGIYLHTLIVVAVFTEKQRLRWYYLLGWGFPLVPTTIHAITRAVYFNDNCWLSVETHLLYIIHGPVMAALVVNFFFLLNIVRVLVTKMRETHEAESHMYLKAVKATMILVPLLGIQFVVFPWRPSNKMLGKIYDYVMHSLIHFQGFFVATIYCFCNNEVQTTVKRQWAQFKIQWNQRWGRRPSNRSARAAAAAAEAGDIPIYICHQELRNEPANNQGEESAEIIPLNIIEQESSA

[14] = target: Melanocortin receptor 3 (Homo sapiens, UniProt P41968); assay type: cell membranes, Membrane; details: hek293; note: in other assays of this panel Not Active means under 50% inhibition at 10 µM
[15] = target: Cytochrome P450 2D6 (Homo sapiens, UniProt P10635); details: bti-tn-5b1-4; note: in other assays of this panel Not Active means under 50% inhibition at 10 µM
[16] = target: Cytochrome P450 2C9 (Homo sapiens, UniProt P11712); details: bti-tn-5b1-4; note: in other assays of this panel Not Active means under 50% inhibition at 10 µM
[17] = target: Platelet-activating factor receptor (Homo sapiens, UniProt P25105); assay: biochemical; assay type: tissue-based; details: platelet; note: in other assays of this panel Not Active means under 50% inhibition at 10 µM
Chain of Platelet-activating factor receptor (P25105 whole entry): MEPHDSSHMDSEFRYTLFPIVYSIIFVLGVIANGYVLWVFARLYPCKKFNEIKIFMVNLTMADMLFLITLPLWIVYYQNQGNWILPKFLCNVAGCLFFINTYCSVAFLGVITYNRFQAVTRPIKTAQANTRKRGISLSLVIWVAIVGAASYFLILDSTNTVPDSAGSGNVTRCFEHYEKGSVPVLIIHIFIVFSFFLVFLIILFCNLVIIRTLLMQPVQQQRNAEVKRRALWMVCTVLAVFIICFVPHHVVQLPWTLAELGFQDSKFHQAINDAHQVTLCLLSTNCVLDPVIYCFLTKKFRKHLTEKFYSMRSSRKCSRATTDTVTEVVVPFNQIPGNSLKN

Chain of Mitogen-activated protein kinase 14 (Q16539 whole entry): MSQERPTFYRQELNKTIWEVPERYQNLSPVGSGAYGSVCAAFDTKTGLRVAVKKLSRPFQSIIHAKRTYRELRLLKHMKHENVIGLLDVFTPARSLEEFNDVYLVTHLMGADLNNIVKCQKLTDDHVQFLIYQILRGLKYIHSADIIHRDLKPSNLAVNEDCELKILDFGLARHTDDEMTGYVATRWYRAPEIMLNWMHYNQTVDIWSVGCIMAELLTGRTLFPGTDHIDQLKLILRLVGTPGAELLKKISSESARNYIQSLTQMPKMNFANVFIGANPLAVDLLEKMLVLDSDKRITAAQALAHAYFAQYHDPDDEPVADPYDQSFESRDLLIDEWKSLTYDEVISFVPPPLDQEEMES
Chain of Cytochrome P450 2C9 (P11712 whole entry): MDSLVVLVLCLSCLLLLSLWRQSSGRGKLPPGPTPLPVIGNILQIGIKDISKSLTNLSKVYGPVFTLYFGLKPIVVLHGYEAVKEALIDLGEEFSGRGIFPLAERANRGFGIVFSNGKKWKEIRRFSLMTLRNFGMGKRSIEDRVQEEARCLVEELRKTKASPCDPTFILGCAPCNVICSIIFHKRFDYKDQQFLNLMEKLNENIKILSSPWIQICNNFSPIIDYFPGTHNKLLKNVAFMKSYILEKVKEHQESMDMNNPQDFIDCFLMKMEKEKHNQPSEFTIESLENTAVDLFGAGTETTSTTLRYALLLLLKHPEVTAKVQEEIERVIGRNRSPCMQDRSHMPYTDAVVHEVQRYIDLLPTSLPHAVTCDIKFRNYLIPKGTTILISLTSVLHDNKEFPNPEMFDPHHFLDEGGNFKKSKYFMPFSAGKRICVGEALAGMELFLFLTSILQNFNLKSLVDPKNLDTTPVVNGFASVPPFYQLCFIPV
Chain of Estrogen receptor beta (Q92731 whole entry): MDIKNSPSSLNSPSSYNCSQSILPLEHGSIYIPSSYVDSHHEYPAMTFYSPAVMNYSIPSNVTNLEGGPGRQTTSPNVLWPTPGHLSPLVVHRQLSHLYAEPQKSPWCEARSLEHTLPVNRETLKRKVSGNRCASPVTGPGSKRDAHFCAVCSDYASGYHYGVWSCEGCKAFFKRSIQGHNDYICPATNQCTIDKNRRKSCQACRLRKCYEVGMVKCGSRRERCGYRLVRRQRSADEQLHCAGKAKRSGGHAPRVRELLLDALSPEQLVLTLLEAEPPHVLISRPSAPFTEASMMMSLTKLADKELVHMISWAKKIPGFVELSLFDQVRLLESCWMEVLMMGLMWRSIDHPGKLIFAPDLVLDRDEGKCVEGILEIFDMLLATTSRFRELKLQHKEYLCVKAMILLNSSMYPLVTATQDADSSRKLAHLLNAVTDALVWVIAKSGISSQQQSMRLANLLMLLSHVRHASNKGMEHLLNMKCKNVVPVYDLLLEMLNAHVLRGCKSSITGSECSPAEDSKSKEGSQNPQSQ
Chain of Sodium-dependent noradrenaline transporter (P23975 whole entry): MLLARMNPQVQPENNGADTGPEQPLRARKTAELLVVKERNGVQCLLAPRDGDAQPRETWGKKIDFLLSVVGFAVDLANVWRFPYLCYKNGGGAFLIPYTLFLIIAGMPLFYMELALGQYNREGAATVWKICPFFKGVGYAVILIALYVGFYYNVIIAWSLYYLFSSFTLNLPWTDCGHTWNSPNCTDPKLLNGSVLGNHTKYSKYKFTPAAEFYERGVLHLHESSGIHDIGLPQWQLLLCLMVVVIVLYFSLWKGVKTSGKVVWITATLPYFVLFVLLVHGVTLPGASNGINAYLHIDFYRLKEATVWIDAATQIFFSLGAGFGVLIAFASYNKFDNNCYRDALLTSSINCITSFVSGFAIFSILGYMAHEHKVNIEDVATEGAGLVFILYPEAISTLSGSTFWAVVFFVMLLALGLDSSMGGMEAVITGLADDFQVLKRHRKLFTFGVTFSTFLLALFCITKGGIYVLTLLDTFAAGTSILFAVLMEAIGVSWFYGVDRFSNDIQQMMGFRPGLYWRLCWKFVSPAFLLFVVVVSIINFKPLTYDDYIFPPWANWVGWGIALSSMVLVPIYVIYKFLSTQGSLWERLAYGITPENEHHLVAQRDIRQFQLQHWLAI
Chain of D(3) dopamine receptor (P35462 whole entry): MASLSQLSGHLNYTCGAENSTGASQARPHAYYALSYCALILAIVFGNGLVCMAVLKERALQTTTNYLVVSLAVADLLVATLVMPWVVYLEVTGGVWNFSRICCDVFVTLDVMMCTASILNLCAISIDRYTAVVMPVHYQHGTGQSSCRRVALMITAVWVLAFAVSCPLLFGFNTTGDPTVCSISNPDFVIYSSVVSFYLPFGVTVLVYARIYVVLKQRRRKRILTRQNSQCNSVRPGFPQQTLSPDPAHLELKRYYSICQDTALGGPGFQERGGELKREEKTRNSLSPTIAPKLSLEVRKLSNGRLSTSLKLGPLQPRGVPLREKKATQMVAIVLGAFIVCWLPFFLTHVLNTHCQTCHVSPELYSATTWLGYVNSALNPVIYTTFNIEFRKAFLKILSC
Chain of Mitogen-activated protein kinase 1 (P28482 whole entry): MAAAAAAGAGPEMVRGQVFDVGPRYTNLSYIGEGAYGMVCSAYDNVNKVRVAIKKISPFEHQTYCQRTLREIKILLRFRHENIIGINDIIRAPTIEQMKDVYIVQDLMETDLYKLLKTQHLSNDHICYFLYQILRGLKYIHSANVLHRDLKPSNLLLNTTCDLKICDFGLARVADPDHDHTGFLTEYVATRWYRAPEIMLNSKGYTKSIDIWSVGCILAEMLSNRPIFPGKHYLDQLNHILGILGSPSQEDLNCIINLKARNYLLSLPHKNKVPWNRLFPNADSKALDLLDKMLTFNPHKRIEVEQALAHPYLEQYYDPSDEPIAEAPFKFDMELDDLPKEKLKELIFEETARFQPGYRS
Chain of Cytochrome P450 2E1 (P05181 whole entry): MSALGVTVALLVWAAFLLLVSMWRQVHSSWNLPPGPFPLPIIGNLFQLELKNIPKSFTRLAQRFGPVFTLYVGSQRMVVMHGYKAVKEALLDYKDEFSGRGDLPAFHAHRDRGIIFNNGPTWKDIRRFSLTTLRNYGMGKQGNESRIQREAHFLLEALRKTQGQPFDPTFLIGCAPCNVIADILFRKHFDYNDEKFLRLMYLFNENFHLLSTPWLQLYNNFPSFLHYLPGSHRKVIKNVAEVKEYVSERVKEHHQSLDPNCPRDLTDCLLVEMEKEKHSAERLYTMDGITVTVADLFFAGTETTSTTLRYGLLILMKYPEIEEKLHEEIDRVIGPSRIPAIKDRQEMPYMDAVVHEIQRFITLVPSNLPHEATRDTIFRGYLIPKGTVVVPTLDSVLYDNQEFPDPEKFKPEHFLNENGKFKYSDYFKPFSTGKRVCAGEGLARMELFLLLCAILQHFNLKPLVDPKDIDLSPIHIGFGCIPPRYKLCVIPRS
Chain of Melanocortin receptor 3 (P41968 whole entry): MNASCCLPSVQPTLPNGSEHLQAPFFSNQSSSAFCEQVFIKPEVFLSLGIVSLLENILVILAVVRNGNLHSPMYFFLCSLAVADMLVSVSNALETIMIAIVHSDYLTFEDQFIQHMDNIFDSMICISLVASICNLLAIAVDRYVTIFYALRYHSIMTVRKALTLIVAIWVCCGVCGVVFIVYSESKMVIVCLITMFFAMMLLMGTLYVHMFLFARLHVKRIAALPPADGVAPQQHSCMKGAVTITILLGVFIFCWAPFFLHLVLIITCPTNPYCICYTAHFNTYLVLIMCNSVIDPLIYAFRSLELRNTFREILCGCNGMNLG
Chain of Sigma non-opioid intracellular receptor 1 (Q99720 whole entry): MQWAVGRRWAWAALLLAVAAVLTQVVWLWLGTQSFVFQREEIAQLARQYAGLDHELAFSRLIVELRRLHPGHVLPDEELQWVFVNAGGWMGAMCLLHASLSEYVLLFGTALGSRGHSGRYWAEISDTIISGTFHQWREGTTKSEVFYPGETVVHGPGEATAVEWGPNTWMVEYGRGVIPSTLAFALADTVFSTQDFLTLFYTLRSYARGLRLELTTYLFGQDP
Chain of Cytochrome P450 2D6 (P10635 whole entry): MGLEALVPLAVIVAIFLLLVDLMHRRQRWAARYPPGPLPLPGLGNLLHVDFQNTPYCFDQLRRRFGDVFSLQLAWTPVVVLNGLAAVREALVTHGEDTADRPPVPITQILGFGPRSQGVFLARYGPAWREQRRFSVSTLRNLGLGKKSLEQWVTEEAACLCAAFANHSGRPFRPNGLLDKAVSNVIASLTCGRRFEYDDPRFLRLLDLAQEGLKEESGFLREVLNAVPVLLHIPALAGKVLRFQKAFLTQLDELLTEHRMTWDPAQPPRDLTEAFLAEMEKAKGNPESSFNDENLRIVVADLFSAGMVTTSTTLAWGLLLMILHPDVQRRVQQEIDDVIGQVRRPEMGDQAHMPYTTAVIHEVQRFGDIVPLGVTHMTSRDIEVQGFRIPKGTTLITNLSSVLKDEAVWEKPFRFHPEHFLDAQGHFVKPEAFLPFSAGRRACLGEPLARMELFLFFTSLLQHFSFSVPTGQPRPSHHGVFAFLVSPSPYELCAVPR

NNC(=O)c1ccncc1 [ISONIAZID]
Not Active: IC50 [1] | Ki [1] | IC50 ([2]; mdck) | IC50 [3] | Ki [3] | IC50 [4] | IC50 [5] | IC50 [6] | Ki [6] | IC50 [7] | IC50 [8] | IC50 [9] | Ki [9] | IC50 [10] | Ki [10] | IC50 [11] | IC50 [12] | IC50 [13] | IC50 [14] | IC50 [15] | Ki [15] | IC50 [16] | Ki [16] | IC50 [17]

CO[C@@H]1[C@@H](O[C@@H]2O[C@H](C)[C@@H](O[C@H]3C[C@@](C)(O)[C@@H](OC(=O)CC(C)C)[C@H](C)O3)[C@H](N(C)C)[C@H]2O)[C@@H](CC=O)C[C@@H](C)[C@@H](O)/C=C/C=C/C[C@@H](C)OC(=O)C[C@H]1O [KITASAMYCIN]
Not Active: IC50 [1] | Ki [1] | IC50 ([2]; mdck) | IC50 [3] | Ki [3] | IC50 [4] | IC50 [5] | IC50 [6] | Ki [6] | IC50 [7] | IC50 [8] | IC50 [9] | Ki [9] | IC50 [10] | Ki [10] | IC50 [11] | IC50 [12] | IC50 [13] | IC50 [14] | IC50 [15] | Ki [15] | IC50 [16] | Ki [16] | IC50 [17]

CCC[C@@H]1C[C@@H](C(=O)N[C@@H]([C@H]2O[C@H](SC)[C@H](O)[C@@H](O)[C@H]2O)[C@@H](C)O)N(C)C1 [LINCOMYCIN]
Not Active: IC50 [1] | Ki [1] | IC50 ([2]; mdck) | IC50 [3] | Ki [3] | IC50 [4] | IC50 [5] | IC50 [6] | Ki [6] | IC50 [7] | IC50 [8] | IC50 [9] | Ki [9] | IC50 [10] | Ki [10] | IC50 [11] | IC50 [12] | IC50 [13] | IC50 [14] | IC50 [15] | Ki [15] | IC50 [16] | Ki [16] | IC50 [17]

Clc1ccc(C(c2ccccc2Cl)C(Cl)Cl)cc1 (stereo unspecified) [MITOTANE]
819 nM: IC50 ([2]; read-out: IC50)
812 nM: Ki ([2]; read-out: Ki)
Not Active: IC50 [1] | Ki [1] | IC50 [3] | Ki [3] | IC50 [4] | IC50 [5] | IC50 [6] | Ki [6] | IC50 [7] | IC50 [8] | IC50 [9] | Ki [9] | IC50 [10] | Ki [10] | IC50 [11] | IC50 [12] | IC50 [13] | IC50 [14] | IC50 [15] | Ki [15] | IC50 [16] | Ki [16] | IC50 [17]

COc1c(C)c2c(c(O)c1C/C=C(\C)CCC(=O)OCCN1CCOCC1)C(=O)OC2 [MYCOPHENOLATE MOFETIL]
Not Active: IC50 [1] | Ki [1] | IC50 ([2]; mdck) | IC50 [3] | Ki [3] | IC50 [4] | IC50 [5] | IC50 [6] | Ki [6] | IC50 [7] | IC50 [8] | IC50 [9] | Ki [9] | IC50 [10] | Ki [10] | IC50 [11] | IC50 [12] | IC50 [13] | IC50 [14] | IC50 [15] | Ki [15] | IC50 [16] | Ki [16] | IC50 [17]
